{
  "source": "patent US20130131161A1",
  "about": "“METHODS AND COMPOSITIONS FOR CARDIOVASCULAR DISEASES AND CONDITIONS” (priority 2009, published 2013)",
  "system": "eNOS",
  "experiment": "eNOS protein abundance in HUVECs by immunochemical methods (Example 2)",
  "assay_type": "cell-based, human",
  "conditions": "for eNOS protein abundance (mean ± sd): pg/ug total protein; for Fold difference eNOS protein abundance (mean ± sd): (LA-419 5 μM)/(control)",
  "excerpt": "eNOS Activity and Protein Abundance Measurements\nUsing immunochemical methods, there was no change in any condition in relation to eNOS protein abundance, Tables ss-L1.",
  "note": "Several values for one entry are separate records, joined by “and”; a condition that tells them apart may be missing. Equal entries are not always repeated.",
  "data": [
    {"smiles": "CC(=O)SC1COC2C(O[N+](=O)[O-])COC12", "note": "(stereo not drawn) [LA-419, S-(6-Nitro-oxi-hexahydro-furo[3,2-b]furan-3-1-il)thioacetate]", "values": [
      {"measurement": "eNOS protein abundance % Change (mean ± sd)", "setting": "5 μM LA-419, Intron 4 variant b/a, a/a, c/c (n=14)", "value": "0.32 (9.26) %"},
      {"measurement": "eNOS protein abundance % Change (mean ± sd)", "setting": "5 μM LA-419, Intron 4 variant b/b (n=31)", "value": "−1.78 (6.88) %"},
      {"measurement": "eNOS protein abundance (mean ± sd)", "setting": "5 μM LA-419, G894T + T786C G/G + T/C, n=8", "value": "6.27 (1.56) pg/ug"},
      {"measurement": "eNOS protein abundance (mean ± sd)", "setting": "5 μM LA-419, G894T + T786C G/G + T/T, n=18", "value": "6.17 (1.24) pg/ug"},
      {"measurement": "eNOS protein abundance (mean ± sd)", "setting": "5 μM LA-419, G894T + T786C G/T + C/C, n=1", "value": "7.25 (0) pg/ug"},
      {"measurement": "eNOS protein abundance (mean ± sd)", "setting": "5 μM LA-419, G894T + T786C G/T + T/C, n=13", "value": "5.59 (1.08) pg/ug"},
      {"measurement": "eNOS protein abundance (mean ± sd)", "setting": "5 μM LA-419, G894T + T786C G/T + T/T, n=4", "value": "5.82 (1.49) pg/ug"},
      {"measurement": "eNOS protein abundance (mean ± sd)", "setting": "5 μM LA-419, G894T + T786C T/T + C/C, n=3", "value": "6.47 (1.34) pg/ug"},
      {"measurement": "eNOS protein abundance (mean ± sd)", "setting": "5 μM LA-419, G894T + T786C T/T + T/C, n=2", "value": "4.52 (0.30) pg/ug"},
      {"measurement": "eNOS protein abundance (mean ± sd)", "setting": "5 μM LA-419, G894T G/G, n=26", "value": "6.20 (1.31) pg/ug"},
      {"measurement": "eNOS protein abundance (mean ± sd)", "setting": "5 μM LA-419, G894T G/T & T/T, n=23", "value": "5.72 (1.20) pg/ug"},
      {"measurement": "eNOS protein abundance (mean ± sd)", "setting": "5 μM LA-419, G894T G/T, n=18", "value": "5.73 (1.17) pg/ug"},
      {"measurement": "eNOS protein abundance (mean ± sd)", "setting": "5 μM LA-419, G894T T/T, n=5", "value": "5.69 (1.44) pg/ug"},
      {"measurement": "eNOS protein abundance (mean ± sd)", "setting": "5 μM LA-419, Genotype Combination, n=31 (title: Combination = G/G + T/T, G/G + T/C, G/G/+C/C, G/T + T/T, G/T + T/C, G/T + C/C, T/T + T/C)", "value": "5.86 (1.30) pg/ug"},
      {"measurement": "eNOS protein abundance (mean ± sd)", "setting": "5 μM LA-419, Genotype Reference, n=18 (title: Reference group = T/T + C/C)", "value": "6.17 (1.24) pg/ug"},
      {"measurement": "eNOS protein abundance (mean ± sd)", "setting": "5 μM LA-419, Intron 4 a/a, n=3", "value": "7.17 (1.19) pg/ug"},
      {"measurement": "eNOS protein abundance (mean ± sd)", "setting": "5 μM LA-419, Intron 4 b/a, a/a, c/c, n=14", "value": "6.31 (1.50) pg/ug"},
      {"measurement": "eNOS protein abundance (mean ± sd)", "setting": "5 μM LA-419, Intron 4 b/a, n=10", "value": "5.95 (1.56) pg/ug"},
      {"measurement": "eNOS protein abundance (mean ± sd)", "setting": "5 μM LA-419, Intron 4 b/b, n=31", "value": "5.75 (1.13) pg/ug"},
      {"measurement": "eNOS protein abundance (mean ± sd)", "setting": "5 μM LA-419, Intron 4 c/c, n=1", "value": "7.39 (0) pg/ug"},
      {"measurement": "eNOS protein abundance (mean ± sd)", "setting": "5 μM LA-419, T-786C CC, n=4", "value": "6.67 (1.16) pg/ug"},
      {"measurement": "eNOS protein abundance (mean ± sd)", "setting": "5 μM LA-419, T-786C T/C & C/C, n=27", "value": "5.87 (1.30) pg/ug"},
      {"measurement": "eNOS protein abundance (mean ± sd)", "setting": "5 μM LA-419, T-786C T/C, n=23", "value": "5.73 (1.29) pg/ug"},
      {"measurement": "eNOS protein abundance (mean ± sd)", "setting": "5 μM LA-419, T-786C T/T, n=22", "value": "6.11 (1.26) pg/ug"},
      {"measurement": "eNOS protein abundance % Change (mean ± sd)", "setting": "5 μM LA-419 vs control, n=2", "value": "−4.89 (0.49) %"},
      {"measurement": "eNOS protein abundance % Change (mean ± sd)", "setting": "5 μM LA-419 vs control, G894T G/G, n=26", "value": "−1.07 (8.07) %"},
      {"measurement": "eNOS protein abundance % Change (mean ± sd)", "setting": "5 μM LA-419 vs control, G894T G/T, n=18", "value": "−0.79 (7.54) %"},
      {"measurement": "eNOS protein abundance % Change (mean ± sd)", "setting": "5 μM LA-419 vs control, G894T T/T, n=5", "value": "−1.54 (6.56) %"},
      {"measurement": "eNOS protein abundance % Change (mean ± sd)", "setting": "5 μM LA-419 vs control, Intron 4 a/a, n=3", "value": "1.11 (10.89) %"},
      {"measurement": "eNOS protein abundance % Change (mean ± sd)", "setting": "5 μM LA-419 vs control, Intron 4 b/a, n=10", "value": "0.68 (9.65) %"},
      {"measurement": "eNOS protein abundance % Change (mean ± sd)", "setting": "5 μM LA-419 vs control, Intron 4 b/b, n=31", "value": "−1.78 (6.88) %"},
      {"measurement": "eNOS protein abundance % Change (mean ± sd)", "setting": "5 μM LA-419 vs control, Intron 4 c/c, n=1", "value": "−5.66 (0) %"},
      {"measurement": "eNOS protein abundance % Change (mean ± sd)", "setting": "5 μM LA-419 vs control, Race Asian, n=1", "value": "−17.56 (0) %"},
      {"measurement": "eNOS protein abundance % Change (mean ± sd)", "setting": "5 μM LA-419 vs control, Race Black, n=12", "value": "−5.95 (6.82) %"},
      {"measurement": "eNOS protein abundance % Change (mean ± sd)", "setting": "5 μM LA-419 vs control, Race Caucasian, n=26", "value": "2.50 (6.89) %"},
      {"measurement": "eNOS protein abundance % Change (mean ± sd)", "setting": "5 μM LA-419 vs control, Race Hispanic, n=6", "value": "−1.16 (4.99) %"},
      {"measurement": "eNOS protein abundance % Change (mean ± sd)", "setting": "5 μM LA-419 vs control, Race Not Reported, n=2", "value": "−4.62 (0.81) %"},
      {"measurement": "eNOS protein abundance % Change (mean ± sd)", "setting": "5 μM LA-419 vs control, T-786C C/C, n=4", "value": "−6.82 (6.09) %"},
      {"measurement": "eNOS protein abundance % Change (mean ± sd)", "setting": "5 μM LA-419 vs control, T-786C T/C, n=23", "value": "−0.37 (9.0) %"},
      {"measurement": "eNOS protein abundance % Change (mean ± sd)", "setting": "5 μM LA-419 vs control, T-786C T/T, n=22", "value": "−0.64 (5.88) %"},
      {"measurement": "Fold difference eNOS protein abundance (mean ± sd)", "setting": "Combination of all G894T + T-786C genotypes but G/G + T/T, n=31", "value": "0.99 (0.09)"},
      {"measurement": "Fold difference eNOS protein abundance (mean ± sd)", "setting": "Combination of all G894T + T-786C genotypes but T/T + C/C, n=46", "value": "0.99 (0.08)"},
      {"measurement": "Fold difference eNOS protein abundance (mean ± sd)", "setting": "G894T + T-786C G/G + T/C, n=8", "value": "0.98 (0.12)"},
      {"measurement": "Fold difference eNOS protein abundance (mean ± sd)", "setting": "G894T + T-786C G/G + T/T, n=18", "value": "0.99 (0.06)"},
      {"measurement": "Fold difference eNOS protein abundance (mean ± sd)", "setting": "G894T + T-786C G/T + C/C, n=1", "value": "0.88 (0)"},
      {"measurement": "Fold difference eNOS protein abundance (mean ± sd)", "setting": "G894T + T-786C G/T + T/C, n=13", "value": "1.00 (0.07)"},
      {"measurement": "Fold difference eNOS protein abundance (mean ± sd)", "setting": "G894T + T-786C G/T + T/T, n=4", "value": "1.00 (0.08)"},
      {"measurement": "Fold difference eNOS protein abundance (mean ± sd)", "setting": "G894T + T-786C T/T + C/C, n=3", "value": "0.95 (0.06)"},
      {"measurement": "Fold difference eNOS protein abundance (mean ± sd)", "setting": "G894T + T-786C T/T + T/C, n=2", "value": "1.04 (0.01)"},
      {"measurement": "Fold difference eNOS protein abundance (mean ± sd)", "setting": "G894T G/G & G/T, n=44", "value": "0.99 (0.08)"},
      {"measurement": "Fold difference eNOS protein abundance (mean ± sd)", "setting": "G894T G/G, n=26", "value": "1.00 (0.08) and 0.99 (0.08)"},
      {"measurement": "Fold difference eNOS protein abundance (mean ± sd)", "setting": "G894T G/T & T/T, n=23", "value": "0.99 (0.07)"},
      {"measurement": "Fold difference eNOS protein abundance (mean ± sd)", "setting": "G894T G/T, n=18", "value": "0.99 (0.08)"},
      {"measurement": "Fold difference eNOS protein abundance (mean ± sd)", "setting": "G894T T/T, n=5", "value": "0.98 (0.07)"},
      {"measurement": "Fold difference eNOS protein abundance (mean ± sd)", "setting": "Intron 4 a/a, n=3", "value": "1.01 (0.11)"}
    ]}
  ]
}
